According to US11912693B2, “Compounds for modulating S1P1 activity and methods of using the same” (TREVENA, INC., priority 2017, dated 2024):

Key:
[1] = target: T1, human sphingosine-1-phosphate receptor 1 (S1P1) (Homo sapiens (Human), UniProt P21453); assay: β-Arrestin2 recruitment assay (PathHunter), S1P1 CHO-K1 cells; assay type: cell-based; conditions: for Emax: CHO-K1, efficacy (SPAN) normalized to fingolimod, read-out: hS1P1 B-arrestin2 SPAN
Experimental: (§1) Stable clonal Chinese hamster ovary K1 (CHO-K1) cells co-expressing EA-β-arrestin2 and the human sphingosine-1-phosphate receptor 1 (NM_001400, S1P1) with a C-terminal Prolink™ tag were purchased from DiscoverX corporation (Cat #: 93-0207C2).
(§2) Cell lines were cultured in AssayComplete™ Media 6 (DiscoverX Corporation, Cat #: 920018GF2) at 37° C. and 5% CO2 in a humidified CO2 and temperature-controlled incubator. To begin assay plating, cells were washed with dulbecco's phosphate buffered saline (CellGro, Cat #: 21-031-CV) and lifted from the culturing flask by incubation (37° C., 5 min) with CellStripper (Cellgro, Cat #: 25-056-CI). […] Plated cells were incubated overnight at 37° C. and 5% CO2 in a humidified CO2 and temperature-controlled incubator. Detecting Inhibition of cAMP Production
Agonist-promoted β-arrestin2 recruitment to the sphingosine-1-phosphate 1 receptor was determined using the β-arrestin PathHunter®) Detection kit (DiscoverX Corporation, Cat #: 93-0001). […] In cells that stably express these fusion proteins, stimulation with a cognate agonist results in the interaction of […] and the Prolink™-tagged GPCR. This allows the complementation of the two β-galactosidase fragments and results in the formation of a functional enzyme with β-galactosidase activity. […] Following a 60 minute incubation at 37° C. and 5% CO2 in a humidified CO2 and temperature-controlled incubator, the components of the β-arrestin PathHunter® Detection kit were added as per the manufacturer's instructions. After an hour incubation at room temperature, plates were analyzed by a BMG PheraStar microplate reader.
(§3) The tables below include the efficacy of the compound as compared to a positive control, referred to as “SPAN”. These values are normalized to fingolimod, a known agonist of the sphingosine-1-phosphate 1 receptor. The tables also include potency values (pEC50) for modulating discrete receptor-mediated activities (inhibition of cAMP production and […] recruitment).
Target sequence in this assay (P21453 whole entry, looked up): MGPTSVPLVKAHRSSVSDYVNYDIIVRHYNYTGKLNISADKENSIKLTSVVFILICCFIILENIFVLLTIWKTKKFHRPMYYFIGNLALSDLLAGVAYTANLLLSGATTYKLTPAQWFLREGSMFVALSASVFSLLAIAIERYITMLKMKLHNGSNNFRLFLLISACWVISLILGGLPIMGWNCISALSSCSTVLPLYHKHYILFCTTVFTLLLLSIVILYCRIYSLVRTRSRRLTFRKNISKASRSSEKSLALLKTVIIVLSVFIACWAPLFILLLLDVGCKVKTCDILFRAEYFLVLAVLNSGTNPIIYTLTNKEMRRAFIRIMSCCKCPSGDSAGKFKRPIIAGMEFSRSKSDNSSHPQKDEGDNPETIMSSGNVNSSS
Target sequence in this assay (P32121 whole entry partner, looked up): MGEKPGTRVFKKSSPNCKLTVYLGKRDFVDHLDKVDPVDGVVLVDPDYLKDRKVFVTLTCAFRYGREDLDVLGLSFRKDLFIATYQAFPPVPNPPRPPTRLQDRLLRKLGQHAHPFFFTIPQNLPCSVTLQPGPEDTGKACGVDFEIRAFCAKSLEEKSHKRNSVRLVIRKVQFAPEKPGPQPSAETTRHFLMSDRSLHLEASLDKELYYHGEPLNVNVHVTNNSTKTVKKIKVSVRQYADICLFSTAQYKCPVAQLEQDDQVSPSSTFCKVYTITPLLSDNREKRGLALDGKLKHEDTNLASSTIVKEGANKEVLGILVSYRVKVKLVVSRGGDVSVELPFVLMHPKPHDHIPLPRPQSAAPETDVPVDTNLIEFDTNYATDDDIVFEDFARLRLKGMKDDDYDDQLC

[2] = target: T1, human sphingosine-1-phosphate receptor 1 (S1P1); assay: Inhibition of cAMP production (HTRF cAMP HiRange), S1P1 CHO-K1 cells; assay type: cell-based; conditions: for Emax: CHO-K1, efficacy (SPAN) normalized to fingolimod, read-out: hS1P1 cAMP SPAN
Experimental: as §1, §2
Target sequence in this assay (P21453 whole entry, looked up): as the sequence (P21453 whole entry, looked up) above
Agonist-promoted G-protein responses were determined by measuring changes in intracellular cAMP using the HTRF® cAMP HiRange kit (CisBio, Cat #: 62AM6PEJ) based on time-resolved fluorescence resonance energy transfer (TR-FRET) technology. […] Following a 30-minute incubation at 37° C. and 5% CO2 in a humidified CO2 and temperature-controlled incubator, the components of the cAMP HiRange kit were added as per the manufacturer's instructions. After an hour incubation at room temperature, plates were analyzed by a BMG PheraStar microplate reader.
as §3

[3] = β-arrestin2 recruitment, S1P1 CHO-K1 cells
[4] = inhibition of cAMP production, S1P1 CHO-K1 cells

| hS1P1 B-arrestin2 pEC50 [1, 3] | hS1P1 cAMP pEC50 [2, 4] | Emax [1] [%] | Emax [2] [%] | EC50 ([1]; β-arrestin2 recruitment, S1P1 CHO-K1 cells, read-out: hS1P1 B-arrestin2 pEC50 (converted)) [µM] | EC50 ([2]; inhibition of cAMP production, S1P1 CHO-K1 cells, read-out: hS1P1 cAMP pEC50 (converted)) [µM] | Structure (SMILES) |
| --- | --- | --- | --- | --- | --- | --- |
| <5 | <6.5 | – | – | – | – | CC(C)Oc1ccccc1-c1noc(-c2ccc3c(c2)nnn3C(C)C)n1 [Compound 62, 3-(2-isopropoxyphenyl)-5-(1-isopropyl-1H-benzo[d][1,2,3]triazol-5-yl)-1,2,4-oxadiazole] |
| <5 | >6.5 | – | – | – | – | CC(C)n1nnc2cc(-c3ncc(-c4ccccc4F)s3)ccc21 [Compound 63, 5-(2-fluorophenyl)-2-(1-isopropyl-1H-benzo[d][1,2,3]triazol-5-yl)thiazole] |
| <5 | >6.5 | – | – | – | – | CC(C)n1nnc2cc(-c3noc(-c4cccc(F)c4)n3)ccc21 [Compound 64, 5-(3-fluorophenyl)-3-(1-isopropylbenzotriazol-5-yl)-1,2,4-oxadiazole] |
| <5 | <6.5 | < 75 | < 75 | – | – | CCC1(CC)CC(=O)c2cc(-c3nc(-c4ccc(OC)cc4)no3)ccc2O1 [Compound 65, 2,2-diethyl-6-(3-(4-methoxyphenyl)-1,2,4-oxadiazol-5-yl)chroman-4-one] |
| >5 | >6.5 | > 75 | > 75 | – | – | CCC1(CC)CC(=O)c2cc(-c3nc(-c4ccccc4C)no3)ccc2O1 [Compound 66, 2,2-diethyl-6-(3-(o-tolyl)-1,2,4-oxadiazol-5-yl)chroman-4-one] |
| >5 | <6.5 | < 75 | > 75 | – | – | CCC1(CC)CC(=O)c2cc(-c3nnc(-c4ccc5c(c4)nnn5C(C)C)s3)ccc2O1 [Compound 67, 2,2-diethyl-6-(5-(1-isopropyl-1H-benzo[d][1,2,3]triazol-5-yl)-1,3,4-thiadiazol-2-yl)chroman-4-one] |
| <5 | <6.5 | < 75 | < 75 | – | – | CCC1(CC)CC(=O)c2cc(-c3nc(-c4ccc(Cl)cc4)no3)ccc2O1 [Compound 68, 6-[3-(4-chlorophenyl)-1,2,4-oxadiazol-5-yl]-2,2-diethyl-chroman-4-one] |
| >5 | <6.5 | < 75 | < 75 | – | – | COc1ccc(-c2nc(-c3ccc4c(c3)nnn4C(C)C)no2)cc1 [Compound 69, 3-(1-isopropylbenzotriazol-5-yl)-5-(4-methoxyphenyl)-1,2,4-oxadiazole] |
| >5 | >6.5 | < 75 | < 75 | – | – | CC(C)n1nnc2cc(-c3nnc(-c4ccccc4O)s3)ccc21 [Compound 70, 2-{5-[1-(propan-2-yl)-1H-1,2,3-benzotriazol-5-yl]-1,3,4-thiadiazol-2-yl}phenol] |
| <5 | <6.5 | < 75 | > 75 | – | – | CCC1(CC)CC(=O)c2cc(-c3nc(-c4cccc(OC)c4)no3)ccc2O1 [Compound 71, 2,2-diethyl-6-(3-(3-methoxyphenyl)-1,2,4-oxadiazol-5-yl)chroman-4-one] |
| >5 | >6.5 | > 75 | > 75 | – | – | CCC1(CC)CC(=O)c2cc(-c3nc(-c4ccc(O)cc4)no3)ccc2O1 [Compound 72, 2,2-diethyl-6-[3-(4-hydroxyphenyl)-1,2,4-oxadiazol-5-yl]chroman-4-one] |
| >5 | <6.5 | < 75 | < 75 | – | – | Cn1nnc2cc(-c3noc(-c4ccccc4Br)n3)ccc21 [Compound 73, 5-(2-bromophenyl)-3-(1-methyl-1H-benzo[d][1,2,3]triazol-5-yl)-1,2,4-oxadiazole] |
| <5 | <6.5 | < 75 | < 75 | – | – | Cc1ccc(-c2nc(-c3ccc4c(c3)nnn4C(C)C)no2)s1 [Compound 74, 5-[5-(5-methylthiophen-2-yl)-1,2,4-oxadiazol-3-yl]-1-(propan-2-yl)-1H-1,2,3-benzotriazole] |
| >5 | >6.5 | > 75 | < 75 | – | – | Cc1ccsc1-c1noc(-c2ccc3c(c2)nnn3CC(C)C)n1 [Compound 75, 1-(2-methylpropyl)-5-[3-(3-methylthiophen-2-yl)-1,2,4-oxadiazol-5-yl]-1H-1,2,3-benzotriazole] |
| <5 | <6.5 | < 75 | < 75 | – | – | CCCn1nnc2cc(-c3nc(-c4cc(C)cc(C)c4)no3)ccc21 [Compound 76, 5-[3-(3,5-dimethylphenyl)-1,2,4-oxadiazol-5-yl]-1-propyl-1H-1,2,3-benzotriazole] |
| – | – | < 75 | < 75 | – | – | Cc1cc(-c2noc(-c3ccc4c(c3)nnn4C3CCCC3)n2)ccn1 [Compound 77] |
| <5 | <6.5 | < 75 | < 75 | – | – | CC(C)n1nnc2cc(-c3noc(-c4cnccn4)n3)ccc21 [Compound 78, 3-(1-isopropyl-1H-benzo[d][1,2,3]triazol-5-yl)-5-(pyrazin-2-yl)-1,2,4-oxadiazole] |
| >5 | >6.5 | > 75 | > 75 | – | – | CC(C)n1nnc2cc(-c3nc(-c4ccccc4)no3)ccc21 [Compound 79, 5-(3-phenyl-1,2,4-oxadiazol-5-yl)-1-(propan-2-yl)-1H-1,2,3-benzotriazole] |
| <5 | >6.5 | < 75 | < 75 | – | – | FC(F)Oc1ccc(-c2noc(-c3ccc4c(c3)nnn4C3CCCC3)n2)cc1 [Compound 80, 1-cyclopentyl-5-{3-[4-(difluoromethoxy)phenyl]-1,2,4-oxadiazol-5-yl}-1H-1,2,3-benzotriazole] |
| – | – | < 75 | > 75 | > 10 | > 0.316 | COC(=O)Cn1nnc2cc(-c3noc(-c4ccccc4Br)n3)ccc21 [Compound 81, methyl 2-(5-(5-(2-bromophenyl)-1,2,4-oxadiazol-3-yl)-1H-benzo[d][1,2,3]triazol-1-yl)acetate] |
| <5 | <6.5 | < 75 | < 75 | – | – | Clc1ccc(-c2noc(-c3ccc4c(c3)nnn4C3CCOCC3)n2)s1 [Compound 82, 5-[3-(5-chlorothiophen-2-yl)-1,2,4-oxadiazol-5-yl]-1-(oxan-4-yl)-1H-1,2,3-benzotriazole] |
| >5 | >6.5 | > 75 | > 75 | – | – | Brc1ccccc1-c1noc(-c2ccc3c(c2)nnn3C2CC2)n1 [Compound 83, 5-[3-(2-bromophenyl)-1,2,4-oxadiazol-5-yl]-1-cyclopropyl-1H-1,2,3-benzotriazole] |
| >5 | <6.5 | > 75 | < 75 | – | – | FC(F)(F)Oc1ccccc1-c1nc(-c2ccc3c(c2)nnn3C2CCCC2)no1 [Compound 84, 3-(1-cyclopentyl-1H-benzo[d][1,2,3]triazol-5-yl)-5-(2-(trifluoromethoxy)phenyl)-1,2,4-oxadiazole] |
| <5 | <6.5 | < 75 | < 75 | – | – | FC(F)(F)c1cc(-c2noc(-c3ccc4c(c3)nnn4C3CC3)n2)ccc1OCc1ccccc1 [Compound 85, 5-{3-[4-(benzyloxy)-3-(trifluoromethyl)phenyl]-1,2,4-oxadiazol-5-yl}-1-cyclopropyl-1H-1,2,3-benzotriazole] |
| <5 | <6.5 | > 75 | < 75 | – | – | Cc1cc(-c2nc(-c3ccc4c(c3)nnn4C(C)C)no2)ccn1 [Compound 86, 3-(1-isopropyl-1H-benzo[d][1,2,3]triazol-5-yl)-5-(2-methylpyridin-4-yl)-1,2,4-oxadiazole] |
